Test results published in ChEMBL document CHEMBL3867442, “Naphthalene Derivatives from the Roots of Pentas parvifolia and Pentas bussei” (2016).

Assay: Cytotoxicity against human MDA-MB-231 cells after 72 hrs by alamar blue assay
Assay type: functional
Conditions: MDA-MB-231, 72 h, read-out: LD50 (the source's name)

| Compound | CC50 |
| --- | --- |
| COC(=O)c1cc(OC)c2c(O)c(O)ccc2c1O | 96.5 µM |
| COc1cc(C(=O)O)c(O)c2ccc3c(c12)C=CC(C)(CCC=C(C)C)O3 (stereo unspecified) [BUSSEIHYDROQUINONE C] | 48.4 µM |
| COc1c(C)c(O)cc2c1C(=O)c1ccccc1C2=O | 54.4 µM |
| COc1c(C=O)c(O)cc2c1C(=O)c1ccccc1C2=O [DAMNACANTHAL] | > 352 µM |
| COc1cc(C(=O)O)c(O)c2ccc3c(c12)[C@@H]1O[C@@H](OC)[C@H](C)[C@@H]2CC[C@](C)(O3)[C@@H]21 | 130 µM |
| CCO[C@@H]1O[C@H]2c3c(ccc4c(O)c(C(=O)O)cc(OC)c34)O[C@@]3(C)CC[C@@H]([C@H]1C)[C@@H]23 | 62.3 µM |
